Measured values from PMC11251039, “Harnessing cholesterol uptake of malaria parasites for therapeutic applications” (EMBO Molecular Medicine, 2024).
“And” between values parts separate entries of the source, which are not always exact repeats. Equal values may be shown once.

How the values were obtained:
[1] = tested on: human embryonic kidney cells (HEK293); test: Human embryonic kidney cell viability assay (MTT); type: cell-based; settings: Homo sapiens, HEK293, 96 h, read-out: IC50, human embryonic kidney cell inhibition (viability)
Method in brief: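 HEK293 cells, 5,000 per well, exposed to serially diluted compound for 96 hours; 10 µg/mL cycloheximide as background control. Viability by MTT (0.45 mg/mL, 2 h), SDS solubilisation, absorbance at 570 nm.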

[2] = tested on: P. falciparum stage V gametocytes; test: P. falciparum gametocyte viability assay (MitoTracker, flow cytometry), stage V; type: cell-based, Plasmodium falciparum; settings: 48 h
Method in brief: (§1)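 Magnetically enriched gametocytes, stage III-IV (day 7) or stage V (day 10), were exposed to serially diluted compounds in medium with 50 mM N-acetyl-D-glucosamine for 48 hours at 37 °C, microaerophilic. Staining with 500 nM MitoTracker Deep Red FM and Hoechst, then flow cytometry, gave percentage live versus dead gametocytes.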

[3] = tested on: P. falciparum stage III–IV gametocytes; test: P. falciparum gametocyte viability assay (MitoTracker, flow cytometry), stage III-IV; type: cell-based, Plasmodium falciparum; settings: 48 h; for Gametocyte stage III-IV viability, percentage of control: replicate values, source data Fig. 2C
Method in brief: as §1

[4] = tested on: human hepatoma cells (Huh7); test: Human hepatoma viability assay (CellTiter-Blue); type: cell-based; settings: Homo sapiens, Huh-7; 48 h, Huh7; read-out: IC50, human hepatoma inhibition (viability)
Method in brief: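 Huh7 cells (10,000/well) were seeded and treated the next day with serially diluted compound or DMSO, with media partially renewed with fresh dilutions over two days.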

[5] = tested on: P. berghei liver stages; test: Plasmodium berghei liver stage growth inhibition assay (luminescence, in Huh7 cells); settings: for P. berghei liver stage growth, dose-response data points (Figure 3A): replicate data points
Experimental: Growth inhibition or cell viability were assessed by incubation with a serial dilution of test compounds, solvent controls (DMSO, ethanol, ethyl acetate), or culture media alone in 96-well plates, with detection of fluorescence, luminescence, or absorbance in microplate readers after 24–96 h unless otherwise specified.
Huh7 cells were seeded at a density of 10,000 cells per well of a 96-well plate, or 20,000 cells per collagen-coated coverslip. After 24 h, test compounds were added the wells were inoculated with P. berghei liver stage sporozoites dissected from infected A. stephensi salivary glands with 5000–10,000 sporozoites per well or 10,000–20,000 sporozoites per coverslip. Uninfected wells served as a control for background luminescence. Luminescence signal was measured 48 h post-invasion by addition of 1:1 ONE-Glo^TM substrate (Promega) with a luminescence microplate reader. Coverslips were fixed, stained, and imaged, with all parasites on each coverslip imaged and delineated as described (Petersen et al, [2017]) using Fiji ImageJ (Schindelin et al, [2012]). Data are presented as a percentage of the size or parasite number of the solvent control to normalize for differences between experiments.
Growth inhibition data were normalised by subtracting background fluorescence, luminescence, absorbance, or percentage of cells from a no-growth or no-viability control (high drug concentration, no-parasite control, or time = 0 measurement as specified), and expressed as a percentage of the growth or cell percentage in the negative control (culture media alone or solvent control) at the indicated timepoint (or to the highest measurement reached during the assay for Fig. EV3).
Plasmodium berghei ANKA Bergreen (22) or GFP-Luc (RMgm-29) (23), respectively
expressing green fluorescent protein (GFP) or a GFP-Luciferase fusion protein, were
maintained under routine conditions in SWR/J Mus musculus mice and Anopheles stephensi
Growth inhibition of P. berghei liver-stages was investigated after infection of human
hepatoma cells (Huh7) and subsequent growth for 48 hours at 37° C, 5% CO2 and 80%
humidity. The day prior to infection, 10,000 Huh7 cells were seeded in dark-sided 96-well
microplates (Greiner Bio One). On the day of infection, compounds or solvent controls
(DMSO) were serially diluted in culture media and 5,000 – 10,000 Bergreen or GFP-Luc
sporozoites were added per well following dissection from infected A. stephensi salivary
glands. Uninfected wells served as control for background luminescence. To promote invasion,
the plates were centrifuged at 1,550 g for 5 minutes. After 60 minutes, the media was
completely replaced with fresh, prewarmed media with the matching drug concentrations.
Media was partially replaced with new drug dilutions over the following two days. 48 hours
post-infection, luminescence signal was measured by addition of 1:1 ONE-GloTM substrate
(Promega) to the wells, followed by detection at 300 – 700 nm using a Synergy HTX plate

COc1cc(NC(C)CCCN)c2ncccc2c1 (centres unmarked) [Primaquine, primaquine, reference compound]
IC50 [1]: 10.6 µM | Gametocyte stage V viability, percentage of control ([2]; 1.562500000 uM, replicate values, source data Fig. 2D, 1.5625 µM): 97.48% and 95.25% and 88.04% | IC50 ([2]; Plasmodium falciparum, read-out: IC50, P. falciparum gametocyte stage V inhibition): 14.8 µM | Gametocyte stage III-IV viability, percentage of control ([3]; 0.781250000 uM, 0.78125 µM): 95.42% and 99.73% and 94.08% and 101.8% and 105.1% and 104.7% and 100.9% (2×) and 98.19% and 96.58% | Gametocyte stage III-IV viability, percentage of control ([3]; 1.562500000 uM, 1.5625 µM): 95.15% (2×) and 94.61% and 99.24% and 100.4% and 98.94% and 101.3% and 96.75% and 94.78% and 98.39% and 95.38% | Gametocyte stage III-IV viability, percentage of control ([3]; 3.125000000 uM, 3.125 µM): 98.92% and 97.04% and 95.42% and 93.41% and 94.06% and 98.34% and 98.94% and 97.34% and 97.99% and 97.59% | Gametocyte stage III-IV viability, percentage of control ([3]; 6.250000000 uM, 6.25 µM): 98.92% and 103.8% and 95.15% and 101.3% and 99.57% and 96.95% and 89.77% and 92.16% and 101.4% and 98.59% and 97.59% | Gametocyte stage III-IV viability, percentage of control ([3]; 12.500000000 uM, 12.5 µM): 94.88% and 91.65% and 92.46% and 91.95% and 85.99% and 84% and 83.2% and 99.8% and 98.59% and 96.58% | Gametocyte stage III-IV viability, percentage of control ([3]; 25.000000000 uM): 79.16% and 90.84% and 90.57% and 89.5% and 87.42% and 88.71% and 66.47% and 62.28% and 62.48% and 96.99% and 92.97% and 89.75% | Gametocyte stage III-IV viability, percentage of control ([3]; 50.000000000 uM): 68.48% and 81.96% and 79.26% and 79.53% and 71.16% and 70.66% and 55.31% and 29.42% and 60.69% and 80.71% and 75.49% and 72.07% | Gametocyte stage III-IV viability, percentage of control ([3]; 100.000000000 uM): 13.88% and 70.94% and 81.83% and 86.47% and 12.9% and 10.48% and -20.11% and -20.13% and -19.64% and 38.56% and 39.79% and 36.92% | Gametocyte stage III-IV viability, percentage of control ([3]; 200.000000000 uM): -26.52% and -4.004% and -1.274% and -24.53% and -24.5% and -24.31% and -27.02% and -23.13% and -23.83% | viability at 0.78125 µM ([3]; Plasmodium falciparum, read-out: Gametocyte stage III-IV viability, percentage of control, 0.781250000 uM, 48 h, replicate values, source data Fig. 2C): 101% | viability at 1.5625 µM ([3]; Plasmodium falciparum, read-out: Gametocyte stage III-IV viability, percentage of control, 1.562500000 uM, 48 h, replicate values, source data Fig. 2C): 98.8% | viability at 3.125 µM ([3]; Plasmodium falciparum, read-out: Gametocyte stage III-IV viability, percentage of control, 3.125000000 uM, 48 h, replicate values, source data Fig. 2C): 93.3% | viability at 6.25 µM ([3]; Plasmodium falciparum, read-out: Gametocyte stage III-IV viability, percentage of control, 6.250000000 uM, 48 h, replicate values, source data Fig. 2C): 94.2% | viability at 12.5 µM ([3]; Plasmodium falciparum, read-out: Gametocyte stage III-IV viability, percentage of control, 12.500000000 uM, 48 h, replicate values, source data Fig. 2C): 89% | IC50 ([3]; Plasmodium falciparum, read-out: IC50, P. falciparum gametocyte stage III-IV inhibition): 60 µM | IC50 [4]: 18.4 µM | P. berghei liver stage growth, dose-response data points (Figure 3A) ([5]; 0.015241580 uM): 93.67 and 95.48 and 110.9 and 122 and 82.26 and 95.7 and 96.97 and 92.94 and 110.1 | P. berghei liver stage growth, dose-response data points (Figure 3A) ([5]; 0.045724740 uM): 108.1 and 96.38 and 105.4 and 91.89 and 98.42 and 97.49 and 70.73 and 69.42 and 92.75 | P. berghei liver stage growth, dose-response data points (Figure 3A) ([5]; 0.137174210 uM): 105.4 and 121.7 and 113.6 and 95.08 and 83.35 and 110.5 and 75.51 and 85.25 and 113.8 | Figure 3E dose-response value (replicates) ([5]; 0.212890630 uM): 110.2 and 105.1 and 104.6 and 108.5 and 84.79 and 105.5 and 104.2 and 95.71 and 86.14 and 93.88 and 93.04 | P. berghei liver stage growth, dose-response data points (Figure 3A) ([5]; 0.411522630 uM): 105.4 and 115.4 (2×) and 82.34 and 95.47 and 107.6 and 82.44 and 82.72 and 115.2 | Figure 3E dose-response value (replicates) ([5]; 0.425781250 uM): 102.3 and 92.15 and 106 and 104.8 and 98.19 and 93.53 and 98.84 and 93.27 and 90.28 | Figure 3E dose-response value (replicates) ([5]; 0.851562500 uM): 96.31 and 95.61 and 102.1 and 104.8 and 94.91 and 106 and 91.69 and 92.32 and 88 and 100 and 90.58 and 89.08 | P. berghei liver stage growth, dose-response data points (Figure 3A) ([5]; 1.234567900 uM): 95.48 and 107.2 and 78.84 and 85.44 and 95.31 and 57.42 and 69.42 and 85.07 | Figure 3E dose-response value (replicates) ([5]; 1.703125000 uM): 88.27 and 98.56 and 102.4 and 105.9 and 83.84 and 86.74 and 92.09 and 88.62 | Figure 3E dose-response value (replicates) ([5]; 3.406250000 uM): 97.54 and 95.04 and 93.86 and 98.31 and 97.98 and 92.53 and 88.24 and 88.2 and 80.51 and 79.64 and 66.71 and 72.77 | P. berghei liver stage growth, dose-response data points (Figure 3A) ([5]; 3.703703700 uM): 52.94 and 55.66 and 62.9 and 27.87 and 29.81 and 24.61 and 21.71 and 31.37 and 31.18 | Figure 3E dose-response value (replicates) ([5]; 6.812500000 uM): 52.26 and 84.6 and 91.44 and 91.35 and 88.74 and 72.33 and 82.87 and 73.41 and 70.7 and 48.65 and 46.53 and 51.73 | P. berghei liver stage growth, dose-response data points (Figure 3A) ([5]; 11.111111100 uM): 2.262 and -2.262 (2×) and 1.062 and 1.606 and 2.072 and 3.062 and 2.968 and 4.186 | Figure 3E dose-response value (replicates) ([5]; 13.625000000 uM): 24.3 and 46.65 and 52.62 and 55.32 and 16.73 and 22.67 and 37.29 and 44.07 and 37.02 and 20.99 and 23.94 and 27.39 | Figure 3E dose-response value (replicates) ([5]; 27.250000000 uM): 0.8156 and 1.015 and 0.9272 and 0.814 and 1.004 and 2.12 and 0.3528 and 0.5411 and 2.525 and 0.8793 and 0.07968 and 0.8298 | P. berghei liver stage growth, dose-response data points (Figure 3A) ([5]; 33.333333300 uM): -1.357 (3×) and 0.4403 and 0.2849 and 0.3626 and 1.093 and 1.749 and 0.9997 | P. berghei liver stage growth, dose-response data points (Figure 3A) ([5]; 100.000000000 uM): -3.167 and -0.4525 and 0.4525 and -0.0259 and 0.0518 (2×) and -0.03124 (2×) and 0.5311 | Figure 3E dose-response value (replicates) ([5]; 109.000000000 uM): 3.02 and 0.4007 and 0.2308 and 0.4951 and 3.634 and 2.894 and 0.4747 and 1.134 and 1.25 and 3.638 and 3.687 and 3.498 | IC50 ([5]; Plasmodium berghei, Huh-7, 48 h, read-out: IC50, P. berghei liver stage growth inhibition): 2.9 µM
